Values quoted from earlier work as cited in patent US10172867B2, “Afobazole nanoparticles formulation for enhanced therapeutics” (University of South Florida, priority 2014, dated 2019).

Legend:
σ-2 receptor = σ-2 receptor (Homo sapiens, UniProt Q5BJF2); details: Cuevas et al., 2011
in vitro ischemia model = details: Cuevas et al.
σ-1 receptor = details: Cuevas et al., 2011
muscarinic receptors = details: Seredenin et al., 2009
[1] = in vivo

σ-2 receptor, sequence (Q5BJF2 whole entry, species assumed): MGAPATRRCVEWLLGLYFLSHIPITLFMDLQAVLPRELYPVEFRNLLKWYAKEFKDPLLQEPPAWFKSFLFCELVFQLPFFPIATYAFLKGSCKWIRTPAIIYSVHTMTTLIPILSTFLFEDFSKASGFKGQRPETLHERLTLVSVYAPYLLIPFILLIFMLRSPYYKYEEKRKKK

σ-2 receptor activity (σ-2 receptor): agonist | σ-1 receptor activity (σ-1 receptor): agonist | interaction with muscarinic receptors (muscarinic receptors): does not interact | brain penetration [1]: limited brain penetration | half-life [1]: short half-life
SMILES: CCOc1ccc2nc(SCCN3CCOCC3)[nH]c2c1 [Afobazole, 5-ethoxy-2[2-(morpholine)-ethylthio]benzimidazole]
neuroprotection (in vitro ischemia model; in vitro ischemia model, 2011): provides neuroprotection | ischemia-induced Ca2+ overload (in vitro ischemia model; via activation of σ-1 receptors, Katnik et al., 2006, 2011a): decrease in ischemia-induced Ca^2+ overload
